{"source": "paper PMC10042540", "about": "“Targeting oncogenic KRasG13C with nucleotide-based covalent inhibitors” (eLife, 2023)", "key": {"[1]": {"system": "GST-tagged cRafRBD (amino acids 51–131)", "experiment": "Effector binding (pull-down experiments)", "conditions": "in the presence of GppNHp alone or in combination with SOS", "protocol": "Pull-down experiments were performed in 20 mM HEPES pH 7.5, 50 mM NaCl and 2 mM MgCl2. […] Afterwards, 50 µL glutathione magnetic beads were added to each sample for 30 min. After washing the beads with 500 µL buffer, the beads were settled with a magnet and the supernatant was carefully removed. The beads were resuspended in 50 µL of 4xSDS-loading buffer and visualized via SDS-PAGE (Figure 3—figure supplement 3)."}, "[2]": {"system": "pcRafS338", "experiment": "Electroporation into HeLa cells, western blot quantification", "assay_type": "cell-based, human", "conditions": "for pcRaf mean fold change: mean of cell lysates", "in_short": "(§1)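 HeLa cells electroporated (2×35 ms, 1000 V) with 0–300 µg recombinant full-length KRas WT or G13C constructs, washed, then recovered for 24 h at 37 °C. Lysates (10 µg protein) analysed by SDS-PAGE and fluorescent western blotting, with protein levels quantified from blot signal.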"}, "[3]": {"system": "pAktS473", "experiment": "Electroporation into HeLa cells, western blot quantification", "assay_type": "cell-based, human", "conditions": "for pAkt mean fold change: mean of cell lysates", "in_short": "as §1"}, "[4]": {"system": "pErkT202/Y204", "experiment": "Electroporation into HeLa cells, western blot quantification", "assay_type": "cell-based, human", "conditions": "for pErk mean fold change: mean of cell lysates", "in_short": "as §1"}}, "data": [{"substance": "KRasG13C-edaGDP: KRasG13C covalently locked with edaGDP at Cys13", "values": [{"measurement": "binding to RafRBD (pull-down)", "setting": "[1]", "value": "neither in the presence of GppNHp nor of additional SOS able to bind to the RafRBD"}, {"measurement": "pcRaf fold change", "setting": "[2]; 50 µg, Cell lysate 1", "value": 0.75}, {"measurement": "pcRaf fold change", "setting": "[2]; 50 µg, Cell lysate 2", "value": 1.33}, {"measurement": "pcRaf fold change", "setting": "[2]; 50 µg, Cell lysate 3", "value": 0.84}, {"measurement": "pcRaf mean fold change", "setting": "[2]; 50 µg", "value": 0.97}, {"measurement": "pcRaf fold change", "setting": "[2]; 100 µg, Cell lysate 1", "value": 0.89}, {"measurement": "pcRaf fold change", "setting": "[2]; 100 µg, Cell lysate 2", "value": 0.78}, {"measurement": "pcRaf fold change", "setting": "[2]; 100 µg, Cell lysate 3", "value": 1.40}, {"measurement": "pcRaf mean fold change", "setting": "[2]; 100 µg", "value": 1.02}, {"measurement": "pcRaf fold change", "setting": "[2]; 200 µg, Cell lysate 1", "value": 0.74}, {"measurement": "pcRaf fold change", "setting": "[2]; 200 µg, Cell lysate 2", "value": 0.88}, {"measurement": "pcRaf fold change", "setting": "[2]; 200 µg, Cell lysate 3", "value": 1.21}, {"measurement": "pcRaf mean fold change", "setting": "[2]; 200 µg", "value": 0.94}, {"measurement": "pcRaf fold change", "setting": "[2]; 300 µg, Cell lysate 1", "value": 0.57}, {"measurement": "pcRaf fold change", "setting": "[2]; 300 µg, Cell lysate 2", "value": 0.97}, {"measurement": "pcRaf fold change", "setting": "[2]; 300 µg, Cell lysate 3", "value": 1.13}, {"measurement": "pcRaf mean fold change", "setting": "[2]; 300 µg", "value": 0.89}, {"measurement": "pAkt fold change", "setting": "[3]; 50 µg, Cell lysate 1", "value": 0.89}, {"measurement": "pAkt fold change", "setting": "[3]; 50 µg, Cell lysate 2", "value": 1.23}, {"measurement": "pAkt mean fold change", "setting": "[3]; 50 µg", "value": 0.54}, {"measurement": "pAkt fold change", "setting": "[3]; 100 µg, Cell lysate 1", "value": 0.28}, {"measurement": "pAkt fold change", "setting": "[3]; 100 µg, Cell lysate 2", "value": 0.69}, {"measurement": "pAkt fold change", "setting": "[3]; 100 µg, Cell lysate 3", "value": 1.01}, {"measurement": "pAkt mean fold change", "setting": "[3]; 100 µg", "value": 0.66}, {"measurement": "pAkt fold change", "setting": "[3]; 200 µg, Cell lysate 1", "value": 0.45}, {"measurement": "pAkt fold change", "setting": "[3]; 200 µg, Cell lysate 2", "value": 0.95}, {"measurement": "pAkt fold change", "setting": "[3]; 200 µg, Cell lysate 3", "value": 0.56}, {"measurement": "pAkt mean fold change", "setting": "[3]; 200 µg", "value": 0.65}, {"measurement": "pAkt fold change", "setting": "[3]; 300 µg, Cell lysate 1", "value": 0.63}, {"measurement": "pAkt fold change", "setting": "[3]; 300 µg, Cell lysate 2", "value": 0.97}, {"measurement": "pAkt fold change", "setting": "[3]; 300 µg, Cell lysate 3", "value": 1.17}, {"measurement": "pAkt mean fold change", "setting": "[3]; 300 µg", "value": 0.92}, {"measurement": "pErk fold change", "setting": "[4]; 50 µg, Cell lysate 1", "value": 0.82}, {"measurement": "pErk fold change", "setting": "[4]; 50 µg, Cell lysate 2", "value": 0.70}, {"measurement": "pErk fold change", "setting": "[4]; 50 µg, Cell lysate 3", "value": 0.80}, {"measurement": "pErk mean fold change", "setting": "[4]; 50 µg", "value": 0.77}, {"measurement": "pErk fold change", "setting": "[4]; 100 µg, Cell lysate 1", "value": 1.10}, {"measurement": "pErk fold change", "setting": "[4]; 100 µg, Cell lysate 2", "value": 0.77}, {"measurement": "pErk fold change", "setting": "[4]; 100 µg, Cell lysate 3", "value": 0.86}, {"measurement": "pErk mean fold change", "setting": "[4]; 100 µg", "value": 0.91}, {"measurement": "pErk fold change", "setting": "[4]; 200 µg, Cell lysate 1", "value": 2.08}, {"measurement": "pErk fold change", "setting": "[4]; 200 µg, Cell lysate 2", "value": 0.84}, {"measurement": "pErk fold change", "setting": "[4]; 200 µg, Cell lysate 3", "value": 1.10}, {"measurement": "pErk mean fold change", "setting": "[4]; 200 µg", "value": 1.34}, {"measurement": "pErk fold change", "setting": "[4]; 300 µg, Cell lysate 1", "value": 2.38}, {"measurement": "pErk fold change", "setting": "[4]; 300 µg, Cell lysate 2", "value": 0.86}, {"measurement": "pErk fold change", "setting": "[4]; 300 µg, Cell lysate 3", "value": 1.58}, {"measurement": "pErk mean fold change", "setting": "[4]; 300 µg", "value": 1.61}]}]}
